Values after ≈ are worked out from the molar mass of the structure shown.

2 compounds from patent US3956291A, “7-Thioacetamido cephalosporanic acid derivatives” (American Home Products Corporation, priority 1974, dated 1976) can be followed below.

Common to all, as to assay: agar serial dilution test, minimum inhibitory concentration
Holding throughout (format): cell-based

One experiment concerns Staphylococcus aureus. The following applies: Staphylococcus aureus. The source says:
(§1) The compounds of this invention are useful for the treatment of bacterial infections amenable to treatment by cephalosporins. […] In accordance with the results obtained with the antibacterial compounds of this invention, their usefulness is established in the fields of comparative pharmacology and microbiology for the purpose of inhibiting the growth of undesirable bacterial colonies. […]

In a further experiment the test system is bacillus subtilis. The conditions noted are these: Bacillus subtilis; BA SU strain 6633.
Source text: as §1

The subject of another experiment is bordetella brochiseptica. The following applies: BO BR strain 4617.
Source text: as §1

Another experiment deals with escherichia coli.
Source text: as §1

The test system of another experiment is klebsiella pneumoniae. The following applies: KL PN strain 10031, read-out: Minimum Inhibitory Concentration.
Source text: as §1

In another experiment the test system is neisseria catarrhalis. The following applies: NE CA strain 8193, read-out: Minimum Inhibitory Concentration.
Source text: as §1

The subject of another experiment is proteus vulgaris. The following applies: PR VU strain 6896, read-out: Minimum Inhibitory Concentration.
Source text: as §1

A further experiment has as its system salmonella paratyphi. The conditions noted are these: Salmonella enterica, read-out: Minimum Inhibitory Concentration.
Source text: as §1

A further experiment deals with escherichia intermedia. The conditions noted are these: Citrobacter intermedius; ES IN strain 65-1. The source says: (§2) The compounds of this invention are useful for the treatment of bacterial infections amenable to treatment by cephalosporins. […] In accordance with the results obtained with the antibacterial compounds of this invention, their usefulness is established in the fields of comparative pharmacology and microbiology for the purpose of inhibiting the growth of undesirable bacterial colonies.
(§3) The nmr spectra described in the following examples pertains to the spectra obtained upon exchanging acidic hydrogens with deuterium and are described in ppm (δ). The small amount of water and/or solvent carried into the products is readily removed by gently heating the material under vacuum. […]

The test system of a further experiment is herellea species. The following applies: HE SP strain 9955.
Source text: as §2, §3

In the next experiment the test system is pseudomones aeruginosa. The conditions noted are these: PS AE strain 10145.
Source text: as §2, §3

The subject of another experiment is enterobacter aerogenes. The conditions noted are these: Klebsiella aerogenes; EN AE strain 13048.
Source text: as §2, §3

On to `CC(=O)OCC1=C(C(=O)O)N2C(=O)[C@@H](NC(=O)CSC(=C[N+](=O)[O-])SCC#N)[C@H]2SC1` [Example 6, 7-[2-(1-Cyanomethylthio-2-nitroethenylthio)acetamido]cephalosporanic acid], for which the MIC against Staphylococcus aureus (ST AU strain 53-180) amounted to 3.9 µg/mL (≈ 7.98 µM); against Staphylococcus aureus (ST AU strain 6538P), 0.976 µg/mL (≈ 2 µM); in the experiment with Staphylococcus aureus (ST AU strain CHP) it was 3.9 µg/mL (≈ 7.98 µM); with Staphylococcus aureus (ST AU strain Smith) it was 0.976 µg/mL (≈ 2 µM); with bacillus subtilis, 0.122 µg/mL (≈ 0.25 µM); against bordetella brochiseptica, 125 µg/mL (≈ 256 µM). Also, the MIC in the experiment with escherichia coli (ES CO strain 920) stood at 125 µg/mL (≈ 256 µM); in the experiment with escherichia coli (ES CO strain 9637), 62.5 µg/mL (≈ 128 µM); in the experiment with klebsiella pneumoniae, 62.5 µg/mL (≈ 128 µM); in the experiment on neisseria catarrhalis, 62.5 µg/mL (≈ 128 µM); in the experiment with proteus vulgaris, 31.3 µg/mL (≈ 64.1 µM); in the experiment with salmonella paratyphi, 7.81 µg/mL (≈ 16 µM). Further, the values for the MIC with escherichia intermedia, in the experiment on herellea species and in the experiment with pseudomones aeruginosa were 250 µg/mL (≈ 512 µM), 125 µg/mL (≈ 256 µM) and 250 µg/mL (≈ 512 µM), respectively.

Regarding `CC(=O)OCC1=C(C(=O)O)N2C(=O)[C@@H](NC(=O)CSC(=NC#N)SCC#N)[C@H]2SC1` [Example 7, 7-[2-[(cyanoimino) (cyanomethylthio)methylthio]acetamido]cephalosporanic acid], the MIC turned out to be 0.976 µg/mL (≈ 2.08 µM) in the experiment on Staphylococcus aureus (ST AU strain 53-180); 0.488 µg/mL (≈ 1.04 µM) in the experiment with Staphylococcus aureus (ST AU strain 6538P); 195 µg/mL (≈ 415 µM) with Staphylococcus aureus (ST AU strain CHP); 0.488 µg/mL (≈ 1.04 µM) in the experiment with Staphylococcus aureus (ST AU strain Smith); 0.061 µg/mL (≈ 0.13 µM) with bacillus subtilis; 15.6 µg/mL (≈ 33.2 µM) in the experiment with bordetella brochiseptica. Moreover, the MIC against escherichia coli (ES CO strain 9637) was 31.3 µg/mL (≈ 66.7 µM); with neisseria catarrhalis, 31.3 µg/mL (≈ 66.7 µM); in the experiment on proteus vulgaris, 31.3 µg/mL (≈ 66.7 µM); against enterobacter aerogenes, 7.81 µg/mL (≈ 16.6 µM); in the experiment on escherichia intermedia, 62.5 µg/mL (≈ 133 µM); against herellea species it was 31.3 µg/mL (≈ 66.7 µM).
